# Activity calls are given as the source filed them. The rule behind the calls is not given here.
# Columns and labels:
# Mushroom tyrosinase [1] = target: T1, Mushroom tyrosinase (Agaricus bisporus, UniProt O42713+Q00024+C7FF04+C7FF05); assay: Inhibition of monophenolase activity of mushroom tyrosinase using L-Tyrosine substrate incubated for 10 mins followed by substrate addition and measured for 15 mins
# Mushroom tyrosinase [2] = target: T1, Mushroom tyrosinase; assay: Inhibition of monophenolase activity of mushroom tyrosinase using L-Tyrosine substrate incubated for 5 mins followed by substrate addition and measured for 30 mins by colorimetry
# B16-F10 [3] = assay: Inhibition of melanin production in mouse B16-F10 cells at 6.25 ug/ml relative to control; format: functional
# B16-F10 [4] = assay: Cytotoxicity against mouse B16-F10 cells assessed as reduction in cell viability incubated for 72 hrs by XTT assay; format: cell-based; settings: B16-F10, 72 h
# B16-F10 [5] = assay: Inhibition of melanin production in mouse B16-F10 cells at 12.5 to 25 ug/ml relative to control; format: functional; settings: dose 12.5-25 µg/ml
# [6] = target: T2, Mushroom tyrosinase (Agaricus bisporus) (UniProt O42713+Q00024+C7FF04+C7FF05); assay: Inhibition of monophenolase activity of mushroom tyrosinase at 100 uM relative to control
# B16-F10 [7] = assay: Inhibition of melanin production in mouse B16-F10 cells at 100 ug/ml relative to control; format: functional
# B16-F1 = assay: Inhibition of melanin production in C57BL/6J mouse B16-F1 cells incubated for 5 days; format: functional, cell-based; settings: B16-F1, 120 h
# Mushroom tyrosinase [8] = target: T1, Mushroom tyrosinase; assay: Inhibition of monophenolase activity of mushroom tyrosinase using L-Tyrosine substrate incubated for 10 mins followed by substrate addition and measured for 20 mins
# B16-F10 [9] = assay: Inhibition of melanin production in mouse B16-F10 cells at 12.5 ug/ml relative to control; format: functional
# Mushroom tyrosinase [10] = target: T1, Mushroom tyrosinase; assay: Inhibition of diphenolase activity of mushroom tyrosinase assessed as reduction in dopachrome formation using L-DOPA substrate incubated for 30 mins
# [11] = target: T2, Mushroom tyrosinase (Agaricus bisporus); assay: Inhibition of monophenolase activity of mushroom tyrosinase assessed as reduction in dopachrome formation using L-Tyrosine substrate incubated for 30 mins by spectrophotometry relative to control
# [12] = Solubility of compound in water at >[…] uM; format: physicochemical; settings: buffer; dose >50 µM
# B16-F10 [13] = assay: Inhibition of melanin production in mouse B16-F10 cells at 25 ug/ml relative to control; format: functional
# B16-F10 [14] = assay: Inhibition of melanin production in mouse B16-F10 cells at 21.42 ug/ml relative to control; format: functional, cell-based; settings: dose 21.42 µg/ml
# cells = settings: Mus musculus, B16-BL6, 120 h
# Description: Cytotoxicity against mouse B16-BL6 cells assessed as reduction in cell viability incubated for 5 days by MTT assay
# Mushroom tyrosinase [15] = target: T1, Mushroom tyrosinase; assay: Inhibition of monophenolase activity of mushroom tyrosinase using L-Tyrosine substrate incubated for 30 mins by spectrophotometry
# Mushroom tyrosinase [16] = target: T1, Mushroom tyrosinase; assay: Inhibition of monophenolase activity of mushroom tyrosinase
# [17] = Inhibition of monophenolase activity of tyrosinase in C57BL/6 mouse melan-a cells incubated for 72 hrs by bradford method
smiles,measurement,setting,value
O=C(/C=C/c1ccc(O)cc1O)c1ccc(O)cc1O,IC50,Mushroom tyrosinase [1],0.06 µM
COc1cc(O)c(C(=O)CCc2ccccc2)c(O)c1,IC50,Mushroom tyrosinase [2],> 200 µM
same,inhibition at 6.25 µg/mL,B16-F10 [3],10%
same,IC50,B16-F10 [4],373 µM
O=C(CCc1ccccc1)c1c(O)cc(O)cc1O,IC50,Mushroom tyrosinase [2],68.48 µM
same,inhibition (INH),B16-F10 [5],25%
same,IC50,B16-F10 [4],219 µM
O=C1C[C@@H](c2ccc(O)cc2)Oc2cc(O)cc(O)c21,inhibition,[6],2.8%
OC[C@H]1O[C@@H](Oc2ccc(O)cc2)[C@H](O)[C@@H](O)[C@@H]1O [ARBUTIN],inhibition at 100 µg/mL,B16-F10 [7],78%
same,IC50,B16-F1,122 µM
same,IC50,B16-F10 [4],391 µM
Cc1c(O)c(C)c2c(c1O)C(=O)C[C@@H](c1ccccc1)O2 [DEMETHOXYMATTEUCINOL],IC50,Mushroom tyrosinase [8],97.6 µM
O=c1c(O)c(-c2ccccc2)oc2cc(O)cc(O)c12 [GALANGIN],IC50,Mushroom tyrosinase [2],420.37 µM
same,inhibition at 12.5 µg/mL,B16-F10 [9],30%
same,IC50,Mushroom tyrosinase [10],101 µM
same,inhibition,[11],20%
same,solubility,[12],Insoluble
same,inhibition at 25 µg/mL,B16-F10 [13],40%
same,IC50,B16-F10 [4],> 200 µM
O=c1c(-c2ccc(O)cc2)coc2cc(O)cc(O)c12 [GENISTEIN],IC50,Mushroom tyrosinase [2],> 200 µM
same,inhibition,B16-F10 [14],inactive
same,IC50,B16-F10 [4],79.2 µM
same,IC50,cells,4.18 µg/mL
same,IC50,Mushroom tyrosinase [15],822 µM
CC(C)=CCc1c(O)cc(O)c2c1O[C@H](c1ccccc1)CC2=O [GLABRANIN],IC50,Mushroom tyrosinase [8],80.6 µM
CC(C)=CCc1c(O)ccc(C(=O)/C=C/c2ccc(O)cc2O)c1O [MORACHALCONE A],IC50,Mushroom tyrosinase [16],0.14 µM
COc1cc(O)c(C(=O)[C@@H]2[C@H](CC=C(C)C)C(C)=CC[C@H]2c2ccccc2)c(O)c1 [PANDURATIN A],IC50,[17],8.2 µM
O=C1C[C@@H](c2ccccc2)Oc2cc(O)cc(O)c21 [PINOCEMBRIN],IC50,Mushroom tyrosinase [2],> 200 µM
same,inhibition at 12.5 µg/mL,B16-F10 [9],8%
same,IC50,B16-F10 [4],30.1 µM

# Source: ChEMBL document CHEMBL4715783, “Insights into tyrosinase inhibition by compounds isolated from Greyia radlkoferi Szyszyl using biological activity, molecular docking and gene expression analysis” (Bioorg Med Chem, 2016)
